# Earlier results in article PMC8453963 (Chemmedchem, 2021).
# Marks after values point to notes of the source that are not given here.
# Conditions: ref [53]
structure (smiles),measurement,value
O=C([O-])CN(CCN(CC(=O)[O-])Cc1cc(CCC(=O)NCCCCCC(=O)NCCCC[C@H](NC(=O)N[C@@H](CCC(=O)O)C(=O)O)C(=O)O)ccc1[O-])Cc1cc(CCC(=O)O)ccc1[O-].[68Ga+3].[OH3+] [[^68Ga]Ga‐PSMA‐11],log D oct/PBS,−2.91^[a]
